Source: patent US20190169221A1, “SUBSTITUTED NUCLEOSIDES, NUCLEOTIDES AND ANALOGS THEREOF” (Janssen BioPharma, Inc., priority 2016, published 2019)

What was measured:
NS5B-BK (Delta-21) = NS5B-BK (Delta-21) (Hepatitis C virus genotype 1b, UniProt P26663); assay: biochemical; parameters: species or system HCV
[1] = molecular target: human rhinovirus 16 polymerase (HRV16pol) (Human rhinovirus 16, UniProt Q82122); assay: Picornavirus polymerase inhibition assay; format: biochemical; conditions: triphosphates, read-out: Viral Polymerase Inhibition IC50 Picornavirus
human rhinovirus 16 polymerase (HRV16pol), sequence (Q82122 1694-2153 limits assumed): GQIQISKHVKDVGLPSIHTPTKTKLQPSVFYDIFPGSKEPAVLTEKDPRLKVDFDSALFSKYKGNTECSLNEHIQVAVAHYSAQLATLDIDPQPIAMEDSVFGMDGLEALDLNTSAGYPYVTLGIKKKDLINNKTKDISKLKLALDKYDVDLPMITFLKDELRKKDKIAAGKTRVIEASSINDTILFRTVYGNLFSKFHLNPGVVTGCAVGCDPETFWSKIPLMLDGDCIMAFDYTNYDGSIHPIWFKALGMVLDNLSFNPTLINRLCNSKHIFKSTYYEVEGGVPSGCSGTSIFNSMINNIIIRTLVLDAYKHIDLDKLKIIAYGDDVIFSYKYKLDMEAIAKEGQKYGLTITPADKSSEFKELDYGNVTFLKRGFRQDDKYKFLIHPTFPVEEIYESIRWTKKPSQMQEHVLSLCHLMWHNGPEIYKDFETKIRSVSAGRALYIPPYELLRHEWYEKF
Protocol: The enzyme activity of human rhinovirus 16 polymerase (HRV16pol) was measured as an incorporation of tritiated NMP into acid-insoluble RNA products. hV16pol assay reactions contained […] recombinant enzyme, 50 nM heteropolymeric RNA, about 0.5 μCi tritiated NTP, 0.1 mM of competing cold NTP, 40 mM Tris-HCl (pH 7.0), […] dithiothreitol and 0.5 mM MgCl2. Standard reactions were incubated for 2.5 h at 30° C., in the presence of increasing concentration of inhibitor. At the end of the reaction, RNA was precipitated with 10% TCA and acid-insoluble RNA products were filtered on a size exclusion 96-well plate. After washing of the plate, scintillation liquid was added and radiolabeled RNA products were detected using standard procedures with a Trilux Microbeta scintillation counter. The compound concentration at which the enzyme-catalyzed rate was reduced by 50% (IC50) was calculated by fitting the data to a non-linear regression (sigmoidal).

Dengue viral polymerase = Dengue viral polymerase (Dengue virus type 2, UniProt P14340); assay: biochemical; conditions: triphosphates; read-out: Viral Polymerase Inhibition IC50 Dengue

NS5B-BK (Delta-21), sequence (P26663 2420-2989 limits assumed): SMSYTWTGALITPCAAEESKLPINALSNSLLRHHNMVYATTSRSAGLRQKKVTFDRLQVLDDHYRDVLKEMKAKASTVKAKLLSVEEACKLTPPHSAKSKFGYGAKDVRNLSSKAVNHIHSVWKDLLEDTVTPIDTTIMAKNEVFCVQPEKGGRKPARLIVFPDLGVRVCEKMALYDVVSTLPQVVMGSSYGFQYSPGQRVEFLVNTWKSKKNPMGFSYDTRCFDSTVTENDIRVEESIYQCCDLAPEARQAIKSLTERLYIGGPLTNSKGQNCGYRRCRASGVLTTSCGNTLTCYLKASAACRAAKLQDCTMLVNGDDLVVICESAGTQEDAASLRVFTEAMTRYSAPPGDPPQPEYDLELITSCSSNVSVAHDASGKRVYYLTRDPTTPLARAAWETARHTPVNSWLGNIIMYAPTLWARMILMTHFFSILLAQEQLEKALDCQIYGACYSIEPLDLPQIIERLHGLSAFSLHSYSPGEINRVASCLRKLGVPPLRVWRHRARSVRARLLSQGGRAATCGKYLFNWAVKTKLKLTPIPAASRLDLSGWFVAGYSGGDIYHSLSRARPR

SMILES	IC50 (NS5B-BK (Delta-21)) [µM]	IC50 [1] [µM]	IC50 (Dengue viral polymerase) [µM]
C#C[C@]1(O)[C@H](n2cnc3c(N)ncnc32)O[C@](F)(COP(=O)(O)OP(=O)(O)OP(=O)(O)O)[C@H]1O [Compound 23]	< 3	< 3	< 3
C[C@]1(F)[C@H](n2cnc3c(N)nc(N)nc32)O[C@](F)(COP(=O)(O)OP(=O)(O)OP(=O)(O)O)[C@H]1O [Compound 21]	< 3	< 3	30 to 100
C#C[C@@]1(O)[C@H](O)[C@@H](COP(=O)(O)OP(=O)(O)OP(=O)(O)O)O[C@H]1n1cnc2c(N)nc(F)nc21 [Compound 17]	< 3	< 3	3 to 30
C#C[C@@]1(O)[C@H](O)[C@@H](COP(=O)(O)OP(=O)(O)OP(=O)(O)O)O[C@H]1c1cnc2c(N)ncnn12 [Compound 53]	< 3	< 3	3 to 30
C#C[C@]1(O)[C@H](n2cnc3c(=O)[nH]cnc32)O[C@](F)(COP(=O)(O)OP(=O)(O)OP(=O)(O)O)[C@H]1O [Compound 56]	< 3	< 3	3 to 30
C#C[C@@]1(O)[C@H](O)[C@@H](COP(=O)(O)OP(=O)(O)OP(=O)(O)O)O[C@H]1n1cnc2c(N)nc(N)nc21 [Compound 18]	< 3	< 3	3 to 30
C=C=C[C@@]1(O)[C@H](O)[C@@H](COP(=O)(O)OP(=O)(O)OP(=O)(O)O)O[C@H]1n1cnc2c(N)ncnc21 [Compound 25]	< 3	3 to 30	3 to 30
C#C[C@@]1(O)[C@H](O)[C@@H](COP(=O)(O)OP(=O)(O)OP(=O)(O)O)O[C@H]1n1cnc2c(=O)[nH]cnc21 [Compound 35]	< 3	> 100	< 3
C#C[C@]1(O)[C@H](n2ccc3c(N)ncnc32)O[C@](F)(COP(=O)(O)OP(=O)(O)OP(=O)(O)O)[C@H]1O [Compound 19]	< 3	< 3	3 to 30
C[C@]1(F)[C@H](n2cnc3c(N)ncnc32)O[C@](F)(COP(=O)(O)OP(=O)(O)OP(=O)(O)O)[C@H]1O [Compound 22]	< 3	< 3	3 to 30
C#C[C@]1(O)[C@H](n2cc(F)c3c(N)ncnc32)O[C@](F)(COP(=O)(O)OP(=O)(O)OP(=O)(O)O)[C@H]1O [Compound 51]	< 3	< 3	< 3
